The record followed here is PubChem BioAssay AID1259411 (Chemical Carcinogenesis Research Information System (CCRIS), 2018).

For this data set, the system named is rodent carcinogenicity bioassays, tumor incidence. In words: CCRIS carcinogenicity studies. An outline of the steps:
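Archive of carcinogenicity, mutagenicity, tumor promotion and tumor inhibition results drawn from journals, NCI reports and other sources, expert-reviewed; covers 1985-2011 and is no longer updated.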

Structures are written as SMILES. The source made the active and inactive calls. No rule for the calls is given here.

Consider `O=[N+]([O-])c1ccc(NCCO)c(OCCO)c1`, for which the carcinogen call (Species: MOUSE, Strain/Sex: B6C3F1/FEMALE, Route: ORAL, Dose: 0, 5000, 10000 PPM IN FEED 7 D/WK FOR 104 WK (STUDY DURATION: 2 YR), Dose: 0, 5000, 10000 PPM IN FEED 7 D/WK FOR 104 WK (STUDY DURATION: 2 YR)) is “inactive; negative”; the carcinogen call (Species: MOUSE, Strain/Sex: B6C3F1/MALE, Route: ORAL, Dose: 0, 5000, 10000 PPM IN FEED 7 D/WK FOR 104 WK (STUDY DURATION: 2 YR), Dose: 0, 5000, 10000 PPM IN FEED 7 D/WK FOR 104 WK (STUDY DURATION: 2 YR)) was “inactive; negative”; the carcinogen call (Species: RAT, Strain/Sex: F344/FEMALE, Route: ORAL, Dose: 0, 5000, 10000 PPM IN FEED 7 D/WK FOR 104 WK (STUDY DURATION: 2 YR), Dose: 0, 5000, 10000 PPM IN FEED 7 D/WK FOR 104 WK (STUDY DURATION: 2 YR)) is “inactive; negative”; the carcinogen call (Species: RAT, Strain/Sex: F344/MALE, Route: ORAL, Dose: 0, 5000, 10000 PPM IN FEED 7 D/WK FOR 104 WK (STUDY DURATION: 105 WK), Dose: 0, 5000, 10000 PPM IN FEED 7 D/WK FOR 104 WK (STUDY DURATION: 105 WK), Tumor Site: Type of Lesion: PITUITARY GLAND (PARS DISTALIS): ADENOMA) is listed as “equivocal”.
For the compound `Cc1ccc2c(c1)C1=Nc3ccccc3C3=Nc4ccccc4C(=N2)N31`, the carcinogen call (Species: MOUSE, Strain/Sex: ALBINO/MALE, FEMALE, Route: DERMAL, Tumor Site: Type of Lesion: SKIN: TUMOR) is “active; positive”.
Regarding `CCn1cc(C(=O)O)c(=O)c2ccc(C)nc21`, the carcinogen call (Species: MOUSE, Strain/Sex: B6C3F1/FEMALE, Route: ORAL, Dose: 0, 2000, 4000 PPM IN FEED FOR 103 WK (STUDY DURATION: 104 WK), Dose: 0, 2000, 4000 PPM IN FEED FOR 103 WK (STUDY DURATION: 104 WK)) was “inactive; negative”; the carcinogen call (Species: MOUSE, Strain/Sex: B6C3F1/MALE, Route: ORAL, Dose: 0, 2000, 4000 PPM IN FEED FOR 103 WK (STUDY DURATION: 104 WK), Dose: 0, 2000, 4000 PPM IN FEED FOR 103 WK (STUDY DURATION: 104 WK), Tumor Site: Type of Lesion: INTEGUMENTARY SYSTEM (SUBCUTANEOUS TISSUE): FIBROMA OR FIBROSARCOMA) is on record as “equivocal”; the carcinogen call (Species: RAT, Strain/Sex: F344/FEMALE, Route: ORAL, Dose: 0, 2000, 4000 PPM IN FEED FOR 103 WK (STUDY DURATION: 104 WK), Dose: 0, 2000, 4000 PPM IN FEED FOR 103 WK (STUDY DURATION: 104 WK), Tumor Site: Type of Lesion: CLITORAL GLAND: ADENOMA, ADENOMA OR PAPILLOMA, ADENOMA OR PAPILLOMA OR CARCINOMA OR PAPILLARY CARCINOMA) was “active; positive”; the carcinogen call (Species: RAT, Strain/Sex: F344/MALE, Route: ORAL, Dose: 0, 2000, 4000 PPM IN FEED FOR 103 WK (STUDY DURATION: 104 WK), Dose: 0, 2000, 4000 PPM IN FEED FOR 103 WK (STUDY DURATION: 104 WK), Tumor Site: Type of Lesion: PREPUTIAL GLAND: ADENOMA, ADENOMA OR PAPILLOMA, CARCINOMA) is “active; positive”.
As to `O=c1cc(CO)occ1O`, the carcinogen call is “active; positive” (Species: MOUSE, Strain/Sex: B6C3F1/FEMALE, Route: ORAL, Dose: 0, 1.5, 3% IN DIET FOR 20 MONTHS (STUDY DURATION: 20 MONTHS), Dose: 0, 1.5, 3% IN DIET FOR 20 MONTHS (STUDY DURATION: 20 MONTHS), Tumor Site: Type of Lesion: THYROID: ADENOMA. LIVER: HEPATOMA); “active; positive” (Species: MOUSE, Strain/Sex: B6C3F1/MALE, Route: ORAL, Dose: 0, 1.5, 3% IN DIET FOR 20 MONTHS (STUDY DURATION: 20 MONTHS), Dose: 0, 1.5, 3% IN DIET FOR 20 MONTHS (STUDY DURATION: 20 MONTHS), Tumor Site: Type of Lesion: THYROID: ADENOMA); “inactive; negative (however, significantly greater increase in thyroid follicular cell hyp” (Species: Rat, Strain/Sex: F344/Male (20/experimental group (10 killed at 31 wk & 10 killed at 44 wk); 15/controls), Route: Oral, Dose: Kojic acid at 2.0% in drinking water for 31 wk, recovery for 13 wk, study duration 44 wk, Dose: Kojic acid at 2.0% in drinking water for 31 wk, recovery for 13 wk, study duration 44 wk, Tumor Site: Type of Lesion: Thyroid: 1 adenoma at 44 wk).
Take `COc1cccc2c1C(=O)c1c(O)c3c(c(O)c1C2=O)C[C@@](O)(C(=O)CO)C[C@@H]3O[C@H]1C[C@H](N)[C@H](O)[C@H](C)O1`: the carcinogen call reads like this: (Species: RAT, Strain/Sex: SPRAGUE-DAWLEY/FEMALE, Route: INTRAVENOUS, Dose: 0, 5, 10 MG/KG IN SALINE SOLUTION ONCE (STUDY DURATION: 1 YR), Dose: 0, 5, 10 MG/KG IN SALINE SOLUTION ONCE (STUDY DURATION: 1 YR), Tumor Site: Type of Lesion: MAMMARY GLAND: FIBROADENOMA, ADENOCARCINOMA) “active; positive”; (Species: RAT, Strain/Sex: SPRAGUE-DAWLEY/MALE, Route: INTRAVENOUS, Dose: 0, 5, 10 MG/KG IN SALINE SOLUTION ONCE (STUDY DURATION: 1 YR), Dose: 0, 5, 10 MG/KG IN SALINE SOLUTION ONCE (STUDY DURATION: 1 YR), Tumor Site: Type of Lesion: MAMMARY GLAND: ADENOCARCINOMA) “active; positive”.
